Activity calls are given as the source filed them. No cut-off for these calls is given here.
Legend:
HepG2 [1] = assay: Cytotoxicity against human HepG2 cells assessed as reduction in cell viability after 48 to 72 hrs; assay type: functional, cell-based
Hep 3B2 = assay: Cytotoxicity against human Hep3B cells assessed as growth inhibition; assay type: functional, cell-based
HepG2 [2] = assay: Induction of apoptosis in human 3D HepG2 spheroids measured after 24 hrs by propidium iodide staining based immunofluorescence microscopy analysis; assay type: functional, cell-based
HepG2 [3] = assay: Cytotoxicity against human HepG2 cells assessed as reduction in cell viability measured after 24 hrs by MTT assay; assay type: functional, cell-based; conditions: HepG2, 24 h
Huh-7 [4] = assay: Cytotoxicity against human HuH7 cells assessed as reduction in cell viability measured after 72 hrs by MTT assay; assay type: functional, cell-based; conditions: Huh-7, 72 h
[5] = molecular target: Exportin-1 (Homo sapiens) (UniProt O14980); assay: Inhibition of CRM1 in human HuH7 cells assessed as accumulation of RIOK2 in nucleus at 1 and 10 uM measured after 24 hrs by DAPI staining based confocal microscopy analysis; assay type: cell-based
[6] = molecular target: Exportin-1 (Homo sapiens) (UniProt O14980); assay: Inhibition of CRM1 in human HuH7 cells assessed as accumulation of RIOK2 in nucleus at 0.1 to 10 uM measured after 6 hrs by DAPI staining based confocal microscopy analysis; assay type: cell-based
HepG2 [7] = assay: Induction of apoptosis in human 3D HepG2 spheroids at 10 uM measured after 24 hrs by propidium iodide staining based immunofluorescence microscopy analysis; assay type: functional, cell-based
Huh-7 [8] = assay: Cytotoxicity against human HuH7 cells assessed as reduction in cell viability measured after 48 hrs by MTT assay; assay type: functional, cell-based; conditions: Huh-7, 48 h
[9] = molecular target: T1, NAD-dependent protein deacetylase sirtuin-1 (Homo sapiens) (UniProt Q96EB6); assay: Inhibition of human recombinant SIRT1 at 10 uM using FLUOR DE LYS SIRT1, deacetylase as substrate preincubated for 2 mins followed by substrate addition measured after 1 hr in presence of NAD+ by fluorescence assay relative to control
T1 sequence (whole entry): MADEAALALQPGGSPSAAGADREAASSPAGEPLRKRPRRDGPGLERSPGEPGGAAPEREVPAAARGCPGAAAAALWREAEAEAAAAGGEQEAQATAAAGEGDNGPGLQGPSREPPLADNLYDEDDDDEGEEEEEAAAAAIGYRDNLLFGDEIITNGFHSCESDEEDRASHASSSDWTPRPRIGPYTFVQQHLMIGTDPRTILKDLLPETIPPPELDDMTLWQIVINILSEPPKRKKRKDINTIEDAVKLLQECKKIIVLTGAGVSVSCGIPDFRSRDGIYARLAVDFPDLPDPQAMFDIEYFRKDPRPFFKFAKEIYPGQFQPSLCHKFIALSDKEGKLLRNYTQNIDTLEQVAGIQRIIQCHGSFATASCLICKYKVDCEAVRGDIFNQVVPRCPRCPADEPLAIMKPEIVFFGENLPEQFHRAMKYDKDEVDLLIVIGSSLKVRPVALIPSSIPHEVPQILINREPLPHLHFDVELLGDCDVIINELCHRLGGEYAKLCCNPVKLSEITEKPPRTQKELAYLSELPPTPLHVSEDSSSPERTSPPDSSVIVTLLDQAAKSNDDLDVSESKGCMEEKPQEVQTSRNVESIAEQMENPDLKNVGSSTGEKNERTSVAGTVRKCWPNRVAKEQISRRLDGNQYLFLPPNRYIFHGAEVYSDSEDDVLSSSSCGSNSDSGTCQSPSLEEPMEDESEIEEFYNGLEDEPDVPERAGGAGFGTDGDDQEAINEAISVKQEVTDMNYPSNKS

HepG2 [10] = assay: Cytotoxicity against human HepG2 cells assessed as reduction in cell viability measured after 48 hrs by MTT assay; assay type: functional, cell-based; conditions: HepG2, 48 h
Huh-7 [11] = assay: Cytotoxicity against human HuH7 cells assessed as reduction in cell viability measured after 24 hrs by MTT assay; assay type: functional, cell-based; conditions: Huh-7, 24 h
[12] = molecular target: T1, NAD-dependent protein deacetylase sirtuin-1 (Homo sapiens); assay: Inhibition of human recombinant SIRT1 at 100 uM using FLUOR DE LYS SIRT1, deacetylase as substrate preincubated for 2 mins followed by substrate addition measured after 1 hr in presence of NAD+ by fluorescence assay relative to control
HepG2 [13] = assay: Cytotoxicity against human HepG2 cells assessed as reduction in cell viability measured after 72 hrs by MTT assay; assay type: functional, cell-based; conditions: HepG2, 72 h

Exportin-1 (Homo sapiens), sequence (O14980 whole entry): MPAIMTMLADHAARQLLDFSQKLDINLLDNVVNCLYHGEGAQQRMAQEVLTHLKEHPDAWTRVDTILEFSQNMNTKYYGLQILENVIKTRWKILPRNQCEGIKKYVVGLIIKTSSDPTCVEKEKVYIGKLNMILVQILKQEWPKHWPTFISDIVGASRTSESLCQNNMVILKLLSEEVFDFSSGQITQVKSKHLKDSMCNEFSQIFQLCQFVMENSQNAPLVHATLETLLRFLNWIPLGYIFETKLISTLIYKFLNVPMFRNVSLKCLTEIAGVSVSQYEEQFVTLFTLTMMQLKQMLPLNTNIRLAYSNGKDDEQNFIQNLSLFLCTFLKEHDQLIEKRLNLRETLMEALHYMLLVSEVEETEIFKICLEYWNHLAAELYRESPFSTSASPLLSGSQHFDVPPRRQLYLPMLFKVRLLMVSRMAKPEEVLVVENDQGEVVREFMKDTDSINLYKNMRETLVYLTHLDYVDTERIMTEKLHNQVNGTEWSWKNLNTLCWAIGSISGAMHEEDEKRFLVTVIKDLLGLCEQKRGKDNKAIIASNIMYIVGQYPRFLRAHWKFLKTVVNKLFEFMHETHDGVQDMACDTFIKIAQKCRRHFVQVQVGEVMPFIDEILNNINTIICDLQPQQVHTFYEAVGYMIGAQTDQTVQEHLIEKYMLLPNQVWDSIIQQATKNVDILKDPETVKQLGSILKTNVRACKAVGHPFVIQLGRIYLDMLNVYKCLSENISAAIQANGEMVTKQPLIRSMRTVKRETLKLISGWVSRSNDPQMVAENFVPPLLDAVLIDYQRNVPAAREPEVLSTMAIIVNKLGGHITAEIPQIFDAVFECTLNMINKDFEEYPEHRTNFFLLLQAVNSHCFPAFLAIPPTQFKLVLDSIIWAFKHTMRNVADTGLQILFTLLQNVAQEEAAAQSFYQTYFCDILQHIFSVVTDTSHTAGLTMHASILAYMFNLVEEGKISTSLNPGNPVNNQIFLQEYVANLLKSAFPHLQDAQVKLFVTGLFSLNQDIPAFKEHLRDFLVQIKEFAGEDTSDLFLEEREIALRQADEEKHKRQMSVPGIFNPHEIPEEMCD

inhibition [5] | inhibition [6] | inhibition [9] [%] | inhibition [12] [%] | SMILES | IC50 (HepG2 [1]) [µM] | IC50 (Hep 3B2) [µM] | Activity (HepG2 [2]) | IC50 (HepG2 [3]) [µM] | IC50 (Huh-7 [4]) [µM] | Activity (HepG2 [7]) | IC50 (Huh-7 [8]) [µM] | IC50 (HepG2 [10]) [µM] | IC50 (Huh-7 [11]) [µM] | IC50 (HepG2 [13]) [µM]
– | – | – | – | O=C1C=CC[C@H](/C=C/c2ccccc2)O1 [GONIOTHALAMIN] | 0.625 to 2.5 | 5.4 | Active | – | – | – | – | – | – | –
Active | Active | 17 | 65 | O=C1C=CCC(c2cc3c(c4ccccc24)CCCC3)O1 (racemic) | – | – | – | 5 | 1.25 | Active | 2.5 | 0.625 | 5 | 0.1

Source: ChEMBL document CHEMBL4359853, “Antiproliferative activity of (R)-4'-methylklavuzon on hepatocellular carcinoma cells and EpCAM+/CD133+ cancer stem cells via SIRT1 and Exportin-1 (CRM1) inhibition” (Eur J Med Chem, 2019)
